Source: US10653779B2, “Formulations with reduced oxidation” (Genentech, Inc., priority 2013, dated 2020)

Experiments:
[1] = system: mAb1; test: Ambient light exposure of 50 mg/mL mAb1 formulations containing L-Trp (Amplex assay, RP-HPLC); type: physicochemical, human
From the text: While confirming the photosensitivity of free L-Trp under ICH light conditions, the effect of ambient light that was typically seen in laboratories was studied. Measurements using a DLM1 digital light meter in various labs indicated an average of 300 lux on a lab benchtop (with white fluorescent lighting), an average of 3000 lux in a laminar flow hood (with white fluorescent lighting) and about 10000 lux for a windowsill exposed to southeast sunlight. […] Peroxide production increased with both luminosity (300, 3000, and 10000 lux) and time (1, 3, and 7 days). […] These levels of light exposure and time were determined to be pharmaceutically relevant for drug substance handling under ambient light and temperature before fill/finish operations and potentially while inspecting drug product vials.

[2] = system: mAb1; test: mAb1 light stress study, 16 hours; Fab/Fc oxidation by RP-HPLC; type: physicochemical, human; conditions: 16 hours of light at 250 W/m^2
Procedure: The fragments were reduced with DTT, and then separated and identified via Liquid Chromatography-Mass Spectrometry (LC-MS). […] Comparison of area integrated under the oxidized and native peaks was used to quantify HC Fab and Fc oxidation. […] By using the papain digest RP-HPLC method in the present study it was possible to investigate Trp residue oxidation by quantifying HC Fab oxidation, and Met residue oxidation by quantifying HC Fc oxidation.
Antioxidants were added at 1 mM. Glass vials containing these formulations were exposed to 250 W/m^2 light in an Atlas SunTest CPS+ Xenon Test Instrument (Chicago, Ill.). Control vials were wrapped in aluminum foil and treated similarly. After light exposure, solutions were prepared for analysis by reverse-phase HPLC as described above.

N[C@@H](Cc1c[nH]c2ccccc12)C(=O)O [L-Trp, L-Tryptophan]
Heavy chain Fab oxidation (W53) with increased luminosity (in words) ([1]; 50 mg/mL mAb1 with 3.2 mM L-Trp, 10 days ambient light): increased heavy chain Fab oxidation
% Fc oxidation in mAb1 ([1]; 50 mg/mL mAb1 with 3.2 mM L-Trp, ambient light 300 lux): 5%
% Fc oxidation in mAb1 ([1]; 50 mg/mL mAb1 with 3.2 mM L-Trp, ambient light 10000 lux): 40%
Hydrogen peroxide produced under ambient light ([1]; L-Trp in formulation buffers containing 50 mg/mL mAb1, 300, 3000, 10000 lux, 1, 3, 7 days): in the micromolar range
Fc oxidation relative to the control level ([2]; 1 mM L-Trp): 7 times
Fab oxidation increase over the control level (mAb1 Ref Mat) ([2]; excipient 1 mM, label mAb1 = No Excipient): over 11 fold
